Reference: patent US6737383B1, “Herbicidal oxadiazolidines” (priority 1999, dated 2004)

Columns and labels:
velvetleaf = experiment: Test B pre/postemergence velvetleaf; type: in vivo, Abutilon theophrasti
In short: (§1)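 Test chemicals in a non-phytotoxic solvent mixture with surfactant were sprayed preemergence onto planted seeds and postemergence onto plants 2 to 18 cm tall (1- to 4-leaf stage). After twelve to sixteen days in a greenhouse, injury was visually rated against untreated controls from 0 (no effect) to 10 (complete control).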

rice = experiment: Test B flood test rice; type: in vivo, Oryza sativa
In short: (§2)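 Plants were grown to the 2-leaf stage before treatment with test chemical, then held in a greenhouse for twelve to sixteen days. Injury was visually rated against untreated controls on a 0–10 scale, where 0 is no effect and 10 is complete control.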

pigweed = experiment: Test B pre/postemergence pigweed; type: in vivo, Amaranthus retroflexus
In short: as §1

bedstraw = experiment: Test B pre/postemergence bedstraw; type: in vivo, Galium aparine
In short: as §1

crabgrass = experiment: Test B pre/postemergence crabgrass; type: in vivo, Digitaria sanguinalis
In short: as §1

giant foxtail = experiment: Test B pre/postemergence giant foxtail; type: in vivo, Setaria faberii
In short: as §1

surinam grass = experiment: Test B pre/postemergence surinam grass; type: in vivo, Brachiaria decumbens
In short: as §1

morningglory = experiment: Test B pre/postemergence morningglory; type: in vivo, Ipomoea hederacea
In short: as §1

wheat = experiment: Test B pre/postemergence wheat; type: in vivo, Triticum aestivum
In short: as §1

rape = experiment: Test B pre/postemergence rape; type: in vivo, Brassica napus
In short: as §1

smallflower flatsedge = experiment: Test B flood test smallflower flatsedge; type: in vivo, Cyperus difformis
In short: as §2

corn = experiment: Test B pre/postemergence corn; type: in vivo, Zea mays
In short: as §1

wild oat = experiment: Test B pre/postemergence wild oat; type: in vivo, Avena fatua
In short: as §1

purple nutsedge = experiment: Test B pre/postemergence purple nutsedge; type: in vivo, Cyperus rotundus
In short: as §1

cocklebur = experiment: Test B pre/postemergence cocklebur; type: in vivo, Xanthium strumarium
In short: as §1

blackgrass = experiment: Test B pre/postemergence blackgrass; type: in vivo, Alopecurus myosuroides
In short: as §1

bamyardgrass = experiment: Test B flood test barnyardgrass; type: in vivo, Echinochloa crus-galli
In short: as §2

soybean = experiment: Test B pre/postemergence soybean; type: in vivo, Glycine max
In short: as §1

sugar beet = experiment: Test B pre/postemergence sugar beet; type: in vivo, Beta vulgaris
In short: as §1

duck salad = experiment: Test B flood test duck salad; type: in vivo, Heteranthera limosa
In short: as §2

[1] = Preemergence, Rate 62 g/ha, scale of 0 to 10 where 0 is no effect and 10 is complete control
[2] = Preemergence, Rate 250 g/ha, scale 0 to 10, 0 is no effect, 10 is complete control
[3] = Rate 125 g/ha, Postemergence, scale 0 to 10
[4] = Rate 62 g/ha, headed Pre-emergence (flood test species), scale 0 to 10 (0 no effect, 10 complete control)
[5] = Rate 125 g/ha, Pre-emergence, flood test species, scale 0 to 10 where 0 is no effect and 10 is complete control
[6] = Rate 250 g/ha, Pre-emergence, flood-test species, scale 0 to 10, 0 is no effect, 10 is complete control
[7] = Rate 500 g/ha, headed Pre-emergence (flood test species), scale 0 to 10 (0 no effect, 10 complete control)
[8] = Preemergence, Rate 125 g/ha, 0 is no effect, 10 is complete control
[9] = Rate 62 g/ha, Postemergence, scale of 0 to 10 where 0 is no effect and 10 is complete control

Cc1ccccc1-n1c(=O)on(C(=O)N(c2ccc(F)cc2Cl)C(C)C)c1=O [Compound 186]
8: Plant response rating (0 to 10; 0 is no effect, 10 is complete control), Bedstraw (bedstraw; Rate 250 g/ha, Postemergence)
2: Velvetleaf plant response rating (velvetleaf; [2]) | Redroot pigweed plant response rating (pigweed; [2]) | Crabgrass plant response rating (crabgrass; [1]) | Plant response rating (0 to 10; 0 is no effect, 10 is complete control), Crabgrass (crabgrass; Rate 250 g/ha, Postemergence) | Morningglory plant response rating (morningglory; [3]) | Plant response rating (0 to 10; 0 is no effect, 10 is complete control), Morningglory (morningglory; Rate 250 g/ha, Postemergence) | Plant response rating (0 to 10; 0 is no effect, 10 is complete control), Nutsedge (purple nutsedge; Rate 250 g/ha, Postemergence) | Plant response rating (0 to 10; 0 is no effect, 10 is complete control), Soybean (soybean; Rate 250 g/ha, Postemergence)
3: Blackgrass plant response rating (blackgrass; [2])
9: Giant foxtail plant response rating (0 to 10 scale) (giant foxtail; [8]) | Giant foxtail plant response rating (giant foxtail; [2])
5: Giant foxtail plant response rating (giant foxtail; [1])
6: Crabgrass plant response rating (0 to 10 scale) (crabgrass; [8]) | Crabgrass plant response rating (crabgrass; [2])
4: Plant response rating (0 to 10; 0 is no effect, 10 is complete control), Blackgrass (blackgrass; Rate 250 g/ha, Postemergence)
1: Morningglory plant response rating (morningglory; [9]) | Soybean plant response rating (soybean; [9]) | Soybean plant response rating (soybean; [3])
0: Velvetleaf plant response rating (velvetleaf; [1]) | Velvetleaf plant response rating (velvetleaf; [3]) | Plant response rating (0 to 10; 0 is no effect, 10 is complete control), Velvetleaf (velvetleaf; Rate 250 g/ha, Postemergence) | Rice plant response rating (rice; [4]) | Rice plant response rating (rice; [5]) | Rice plant response rating (rice; [6]) | Plant response rating, Rice (rice; [7]) | Redroot pigweed plant response rating (pigweed; [1]) | Redroot pigweed plant response rating (0 to 10 scale) (pigweed; [8]) | Redroot pigweed plant response rating (pigweed; [9]) | Redroot pigweed plant response rating (pigweed; [3]) | Plant response rating (0 to 10; 0 is no effect, 10 is complete control), Redroot pigweed (pigweed; Rate 250 g/ha, Postemergence) | Bedstraw plant response rating (bedstraw; [1]) | Bedstraw plant response rating (0 to 10 scale) (bedstraw; [8]) | Bedstraw plant response rating (bedstraw; [2]) | Bedstraw plant response rating (bedstraw; [9]) | Bedstraw plant response rating (bedstraw; [3]) | Crabgrass plant response rating (crabgrass; [9]) | Crabgrass plant response rating (crabgrass; [3]) | Giant foxtail plant response rating (giant foxtail; [9]) | Giant foxtail plant response rating (giant foxtail; [3]) | Plant response rating (0 to 10; 0 is no effect, 10 is complete control), Giant foxtail (giant foxtail; Rate 250 g/ha, Postemergence) | B. signalgrass plant response rating (surinam grass; [1]) | B. signalgrass plant response rating (0 to 10 scale) (surinam grass; [8]) | B. signalgrass plant response rating (surinam grass; [2]) | B. signalgrass plant response rating (surinam grass; [9]) | B. signalgrass plant response rating (surinam grass; Rate 125 g/ha, Postemergence, scale 0 (no effect) to 10 (complete control)) | Plant response rating, B. signalgrass (surinam grass; Rate 250 g/ha, Postemergence, scale 0 to 10, 0 is no effect, 10 is complete control) | Morningglory plant response rating (morningglory; [1]) | Morningglory plant response rating (0 to 10 scale) (morningglory; [8]) | Morningglory plant response rating (morningglory; [2]) | Wheat plant response rating (wheat; [1]) | Wheat plant response rating (wheat; [2]) | Wheat plant response rating (wheat; [3]) | Plant response rating (0 to 10; 0 is no effect, 10 is complete control), Wheat (wheat; Rate 250 g/ha, Postemergence) | Rape plant response rating (rape; [1]) | Rape plant response rating (0 to 10 scale) (rape; [8]) | Rape plant response rating (rape; [2]) | Rape plant response rating (rape; [9]) | Rape plant response rating (rape; [3]) | Plant response rating (0 to 10; 0 is no effect, 10 is complete control), Rape (rape; Rate 250 g/ha, Postemergence) | S. Flatsedge plant response rating (smallflower flatsedge; [4]) | S. Flatsedge plant response rating (smallflower flatsedge; [5]) | S. Flatsedge plant response rating (smallflower flatsedge; [6]) | S. Flatsedge plant response rating (smallflower flatsedge; Rate 500 g/ha, Pre-emergence, flood test species, scale 0 to 10 (0 no effect, 10 complete control)) | Corn plant response rating (corn; [1]) | Corn plant response rating (0 to 10 scale) (corn; [8]) | Corn plant response rating (corn; [2]) | Corn plant response rating (corn; [9]) | Corn plant response rating (corn; [3]) | Plant response rating (0 to 10; 0 is no effect, 10 is complete control), Corn (corn; Rate 250 g/ha, Postemergence) | Wild oats plant response rating (wild oat; [1]) | Wild oats plant response rating (wild oat; [2]) | Wild oats plant response rating (wild oat; [3]) | Plant response rating (0 to 10; 0 is no effect, 10 is complete control), Wild oats (wild oat; Rate 250 g/ha, Postemergence) | Nutsedge plant response rating (purple nutsedge; [1]) | Nutsedge plant response rating (0 to 10 scale) (purple nutsedge; [8]) | Nutsedge plant response rating (purple nutsedge; [9]) | Nutsedge plant response rating (purple nutsedge; [3]) | Cocklebur plant response rating (cocklebur; [1]) | Cocklebur plant response rating (0 to 10 scale) (cocklebur; [8]) | Cocklebur plant response rating (cocklebur; [2]) | Cocklebur plant response rating (cocklebur; [9]) | Cocklebur plant response rating (cocklebur; [3]) | Plant response rating (0 to 10; 0 is no effect, 10 is complete control), Cocklebur (cocklebur; Rate 250 g/ha, Postemergence) | Blackgrass plant response rating (blackgrass; [1]) | Blackgrass plant response rating (0 to 10 scale) (blackgrass; [8]) | Blackgrass plant response rating (blackgrass; [9]) | Blackgrass plant response rating (blackgrass; [3]) | Barnyardgrass plant response rating (bamyardgrass; [4]) | Barnyardgrass plant response rating (bamyardgrass; [5]) | Barnyardgrass plant response rating (bamyardgrass; [6]) | Plant response rating, Barnyardgrass (bamyardgrass; [7]) | Soybean plant response rating (soybean; [1]) | Soybean plant response rating (0 to 10 scale) (soybean; [8]) | Soybean plant response rating (soybean; [2]) | Sugarbeets plant response rating (sugar beet; [1]) | Sugarbeets plant response rating (0 to 10 scale) (sugar beet; [8]) | Sugarbeets plant response rating (sugar beet; [2]) | Sugarbeets plant response rating (sugar beet; [9]) | Sugarbeets plant response rating (sugar beet; [3]) | Plant response rating (0 to 10; 0 is no effect, 10 is complete control), Sugarbeets (sugar beet; Rate 250 g/ha, Postemergence) | Ducksalad plant response rating (duck salad; [4]) | Ducksalad plant response rating (duck salad; [5]) | Ducksalad plant response rating (duck salad; [6]) | Plant response rating, Ducksalad (duck salad; [7])
